Reference: patent publication US10590129B2 (Incozen Therapeutics Pvt. Ltd., priority 2010, dated 2020)
Counter-ions that a name gives are not always drawn.

System: MKN-45 cells
Assay: Inhibition of MKN-45 proliferation (MTT)
Assay type: cell-based, human
Details: for inhibition at 0.1 µM / Inhibition (% Inhibition of MKN-45 proliferation): 0.1 μM
Experimental: Inhibition of MKN-45 Proliferation:
Cell proliferation assays were carried out using the high Met expressing human gastric adenocarcinoma cell line, MKN-45, according to the following schedule:
Day 1: Cells were plated in 96-well plates in complete growth medium.
Day 2: Compounds at desired concentrations were added.
Day 5: Cell viability was determined using the 3-[4,5-dimethylthiazol-2-yl]-2,5-diphenyltetrazolium bromide (MTT) dye reduction test.

[1] = Homo sapiens, MKN-45, MKN-45 proliferation

SMILES: CCNC(=O)c1ccc(-c2ccc3nnn(Cc4ccc5c(ccc[n+]5[O-])c4)c3n2)cc1Cl
- inhibition at 0.1 µM [1]: < 25%
- inhibition at 1 µM [1]: < 25%

SMILES: Cc1n[nH]cc1-c1ccc2nnn(Cc3ccc4ncccc4c3)c2n1
- inhibition at 0.1 µM [1]: 25 to 50%
- inhibition at 1 µM [1]: < 25%

SMILES: CC(c1ccc2ncccc2c1)n1nnc2ccc(-c3ccc(C(N)=O)c(Cl)c3)nc21 (racemic) [Ex 214, 2-Chloro-4-(3-(1-(quinolin-6-yl)ethyl)-3H-[1,2,3]triazolo[4,5-b]pyridin-5-yl)benzamide]
- GI50 [1]: ≤ 50 nM
- inhibition at 0.1 µM [1]: 75 to 100%

SMILES: C/C(=N/NC(=O)c1ccncc1)c1ccc2nnn(Cc3ccc4ncccc4c3)c2n1 (single isomer, unassigned) [Ex 220, N′-(1-(3-(quinolin-6-ylmethyl)-3H-[1,2,3]triazolo[4,5-b]pyridin-5-yl)ethylidene)iso-nicotinohydrazide]
- inhibition at 0.1 µM [1]: < 25%

SMILES: OCc1ccc(-c2ccc3nnn(Cc4ccc5ncccc5c4)c3n2)cc1F [Ex41, hydrochloride]
- GI50 (MKN-45 proliferation, hydrochloride): 50 to 150 nM

SMILES: O=C(NC1CCCCC1)c1ccc(-c2ccc3nnn(Cc4ccc5ncccc5c4)c3n2)cc1F [Ex45]
- GI50 [1]: 50 to 150 nM

SMILES: CNC(=O)c1cccc(-c2ccc3nnn(Cc4ccc5ncccc5c4)c3n2)c1 [Ex55]
- GI50 [1]: 50 to 150 nM

SMILES: C=CCNC(=O)c1ccc(-c2ccc3nnn(Cc4ccc5ncccc5c4)c3n2)cc1F [Ex61]
- GI50 [1]: ≤ 50 nM

SMILES: CONC(=O)c1ccc(-c2ccc3nnn(Cc4ccc5ncccc5c4)c3n2)cc1F [Ex62]
- GI50 [1]: ≤ 50 nM

SMILES: Nc1ccc(-c2ccc3nnn(Cc4ccc5ncccc5c4)c3n2)cc1 [Ex64]
- inhibition at 0.1 µM [1]: < 25%

SMILES: O=C(NCc1ccco1)c1ccc(-c2ccc3nnn(Cc4ccc5ncccc5c4)c3n2)cc1F [Ex92]
- inhibition at 0.1 µM [1]: < 25%

SMILES: O=C(NC1CC1)c1ccc(-c2ccc3nnn(Cc4ccc5ncccc5c4)c3n2)cc1Cl [Ex113]
- inhibition at 0.1 µM [1]: 75 to 100%

SMILES: C[C@H](c1ccc2ncccc2c1)n1nnc2ccc(-c3ccc(C(N)=O)c(Cl)c3)nc21 [Ex222]
- GI50 [1]: 150 to 500 nM

SMILES: O=C(O)c1ccc(-c2ccc3nnn(Cc4ccc5ncccc5c4)c3n2)cc1 [Ex 22, Lithium 4-(3-(quinolin-6-ylmethyl)-3H-[1,2,3]triazolo[4,5-b]pyridin-5-yl)benzoate]
- inhibition at 1 µM (Homo sapiens, MKN-45 proliferation): < 25%

SMILES: CN1CCN(C(=O)c2ccc(-c3ccc4nnn(Cc5ccc6ncccc6c5)c4n3)cc2)CC1 [Ex 26, (4-Methylpiperazin-1-yl)(4-(3-(quinolin-6-ylmethyl)-3H-[1,2,3]triazolo[4,5-b]pyridin-5-yl)phenyl)methanone]
- GI50 [1]: < 1000 nM

SMILES: CN(C)CCNC(=O)c1ccc(-c2ccc3nnn(Cc4ccc5ncccc5c4)c3n2)cc1 [Ex 27, N-(2-(dimethylamino)ethyl)-4-(3-(quinolin-6-ylmethyl)-3H-[1,2,3]triazolo[4,5-b]pyridin-5-yl)benzamide]
- GI50 [1]: 50 to 150 nM

SMILES: O=C(NC1CCOCC1)c1ccc(-c2ccc3nnn(Cc4ccc5ncccc5c4)c3n2)cc1 [Ex 28, 4-(3-(quinolin-6-ylmethyl)-3H-[1,2,3]triazolo[4,5-b]pyridin-5-yl)-N-(tetrahydro-2H-pyran-4-yl)benzamide]
- GI50 [1]: 150 to 500 nM

SMILES: O=C(NC1CCNCC1)c1ccc(-c2ccc3nnn(Cc4ccc5ncccc5c4)c3n2)cc1 [Ex 30, N-(Piperidin-4-yl)-4-(3-(quinolin-6-ylmethyl)-3H-[1,2,3]triazolo[4,5-b]pyridin-5-yl)benzamide hydrochloride]
- GI50 [1]: 150 to 500 nM

SMILES: CN(C)CCNC(=O)c1ccc(-c2ccc3nnn(Cc4ccc5ncccc5c4)c3n2)cc1F [Ex 31, N-(2-(dimethylamino)ethyl)-2-fluoro-4-(3-(quinolin-6-ylmethyl)-3H-[1,2,3]triazolo[4,5-b]pyridin-5-yl)benzamide]
- GI50 [1]: 150 to 500 nM

SMILES: O=C(c1ccc(-c2ccc3nnn(Cc4ccc5ncccc5c4)c3n2)cc1)N1CCC[C@H]1CN1CCCC1 [Ex 32, (S)-(2-(pyrrolidin-1-ylmethyl)pyrrolidin-1-yl)(4-(3-(quinolin-6-ylmethyl)-3H-[1,2,3]triazolo[4,5-b]pyridin-5-yl)phenyl)methanone hydrochloride]
- GI50 [1]: < 1000 nM

SMILES: O=C(c1ccc(-c2ccc3nnn(Cc4ccc5ncccc5c4)c3n2)cc1)N1CCN(CCO)CC1 [Ex 33, (4-(2-hydroxyethyl)piperazin-1-yl)(4-(3-(quinolin-6-ylmethyl)-3H-[1,2,3]triazolo[4,5-b]pyridin-5-yl)phenyl)methanone]
- GI50 [1]: 150 to 500 nM

SMILES: O=C(c1ccc(-c2ccc3nnn(Cc4ccc5ncccc5c4)c3n2)cc1)N1CC[C@@H](O)C1 [Ex 34, (R)-(3-hydroxypyrrolidin-1-yl)(4-(3-(quinolin-6-ylmethyl)-3H-[1,2,3]triazolo[4,5-b]pyridin-5-yl)phenyl)methanone hydrochloride]
- GI50 [1]: < 1000 nM

SMILES: O=C(NCCN1CCCCC1)c1ccc(-c2ccc3nnn(Cc4ccc5ncccc5c4)c3n2)cc1 [Ex 35, N-(2-(piperidin-1-yl)ethyl)-4-(3-(quinolin-6-ylmethyl)-3H-[1,2,3]triazolo[4,5-b]pyridin-5-yl)benzamide]
- GI50 [1]: 50 to 150 nM

SMILES: O=C(NCCN1CCOCC1)c1ccc(-c2ccc3nnn(Cc4ccc5ncccc5c4)c3n2)cc1 [Ex 36, N-(2-morpholinoethyl)-4-(3-(quinolin-6-ylmethyl)-3H-[1,2,3]triazolo[4,5-b]pyridin-5-yl)benzamide]
- GI50 [1]: 50 to 150 nM

SMILES: O=C(NCCN1CCCC1)c1ccc(-c2ccc3nnn(Cc4ccc5ncccc5c4)c3n2)cc1 [Ex 37, N-(2-(pyrrolidin-1-yl)ethyl)-4-(3-(quinolin-6-ylmethyl)-3H-[1,2,3]triazolo[4,5-b]pyridin-5-yl)benzamide]
- GI50 [1]: ≤ 50 nM

SMILES: O=C(c1ccc(-c2ccc3nnn(Cc4ccc5ncccc5c4)c3n2)cc1)N1CCC(N2CCCC2)CC1 [Ex 38, (4-(pyrrolidin-1-yl)piperidin-1-yl)(4-(3-(quinolin-6-ylmethyl)-3H-[1,2,3]triazolo[4,5-b]pyridin-5-yl)phenyl)methanone]
- GI50 [1]: < 1000 nM

SMILES: CN(C)CCCNC(=O)c1ccc(-c2ccc3nnn(Cc4ccc5ncccc5c4)c3n2)cc1 [Ex 39, N-(3-(dimethylamino)propyl)-4-(3-(quinolin-6-ylmethyl)-3H-[1,2,3]triazolo[4,5-b]pyridin-5-yl)benzamide]
- GI50 [1]: 50 to 150 nM

SMILES: COCCN(CCOC)C(=O)c1ccc(-c2ccc3nnn(Cc4ccc5ncccc5c4)c3n2)cc1 [Ex 40, N,N-Bis(2-methoxyethyl)-4-(3-(quinolin-6-ylmethyl)-3H-[1,2,3]triazolo[4,5-b]pyridin-5-yl)benzamide hydrochloride]
- GI50 [1]: < 1000 nM

SMILES: O=C(NCCN1CCCC1)c1ccc(-c2ccc3nnn(Cc4ccc5ncccc5c4)c3n2)cc1F [Ex 44, 2-Fluoro-N-(2-(pyrrolidin-1-yl)ethyl)-4-(3-(quinolin-6-ylmethyl)-3H-[1,2,3]triazolo[4,5-b]pyridin-5-yl)benzamide]
- GI50 [1]: 50 to 150 nM

SMILES: CNC(=O)c1cccc(-c2ccc3nnn(Cc4ccc5ncccc5c4)c3n2)c1 [Ex 55, N-Methyl-3-(3-(quinolin-6-ylmethyl)-3H-[1,2,3]triazolo[4,5-b]pyridin-5-yl)benzamide]
- inhibition at 0.1 µM [1]: < 25%

SMILES: O=C(O)CCNc1ccc(-c2ccc3nnn(Cc4ccc5ncccc5c4)c3n2)cc1F [Ex 58, 3-(2-Fluoro-4-(3-(quinolin-6-ylmethyl)-3H-[1,2,3]triazolo[4,5-b]pyridin-5-yl)phenylamino)propanoic acid]
- inhibition at 0.1 µM [1]: < 25%
- inhibition at 1 µM [1]: < 25%

SMILES: CCNC(=O)c1ccc(-c2ccc3nnn(Cc4ccc5ncccc5c4)c3n2)cc1F [Ex 73, N-Ethyl-2-fluoro-4-(3-(quinolin-6-ylmethyl)-3H-[1,2,3]triazolo[4,5-b]pyridin-5-yl)benzamide hydrochloride]
- inhibition at 0.1 µM [1]: 75 to 100%
- inhibition at 1 µM [1]: 50 to 75%

SMILES: NC(=O)c1ccc(-c2ccc3nnn(Cc4ccc5ncccc5c4)c3n2)cc1F [Ex 74, 2-Fluoro-4-(3-(quinolin-6-ylmethyl)-3H-[1,2,3]triazolo[4,5-b]pyridin-5-yl)benzamide hydrochloride]
- inhibition at 0.1 µM [1]: 50 to 75%
- inhibition at 1 µM [1]: 50 to 75%

SMILES: CC(C)(c1ccc2ncccc2c1)n1nnc2ccc(-c3ccc(C(N)=O)c(F)c3)nc21 [Ex 84, 2-Fluoro-4-(3-(2-(quinolin-6-yl)propan-2-yl)-3H-[1,2,3]triazolo[4,5-b]pyridin-5-yl)benzamide]
- inhibition at 0.1 µM [1]: < 25%
- inhibition at 1 µM [1]: < 25%

SMILES: O=C(NC1CC1)c1ccc(-c2ccc3nnn(Cc4ccc5c(ccc[n+]5[O-])c4)c3n2)cc1F [Ex 88, 6-((5-(4-(Cyclopropylcarbamoyl)-3-fluorophenyl)-3H-[1,2,3]triazolo[4,5-b]pyridin-3-yl)methyl)quinoline 1-oxide]
- inhibition at 0.1 µM [1]: < 25%
- inhibition at 1 µM [1]: < 25%

SMILES: CN(C)CCCNC(=O)c1ccc(-c2ccc3nnn(Cc4ccc5ncccc5c4)c3n2)cc1F [Ex 121, N-(3-(dimethylamino)propyl)-2-fluoro-4-(3-(quinolin-6-ylmethyl)-3H-[1,2,3]triazolo[4,5-b]pyridin-5-yl)benzamide dihydrochloride]
- inhibition at 1 µM [1]: < 25%
- Inhibition (% Inhibition of MKN-45 proliferation) (MKN-45 proliferation, dihydrochloride): A (A = ≥75 to 100%)

SMILES: Cl.NC(=O)c1ccc(-c2ccc3nnn(Cc4ccc5ncccc5c4)c3n2)cc1Cl [Ex 123, 2-Chloro-4-(3-(quinolin-6-ylmethyl)-3H-[1,2,3]triazolo[4,5-b]pyridin-5-yl)benzamide hydrochloride]
- Inhibition (% Inhibition of MKN-45 proliferation) (MKN-45 proliferation): B (B = ≥50-<75%)

SMILES: NCCCNC(=O)c1ccc(-c2ccc3nnn(Cc4ccc5ncccc5c4)c3n2)cc1F [Ex 125, N-(3-Aminopropyl)-2-fluoro-4-(3-(quinolin-6-ylmethyl)-3H-[1,2,3]triazolo[4,5-b]pyridin-5-yl)benzamide dihydrochloride]
- inhibition at 0.1 µM [1]: < 25%
- inhibition at 1 µM [1]: < 25%

SMILES: CN(C)CCCNC(=O)c1ccc(-c2ccc3nnn(Cc4ccc5ncccc5c4)c3n2)cc1Cl [Ex 126, 2-Chloro-N-(3-(dimethylamino)propyl)-4-(3-(quinolin-6-ylmethyl)-3H-[1,2,3]triazolo[4,5-b]pyridin-5-yl)benzamide dihydrochloride]
- inhibition at 0.1 µM [1]: 75 to 100%
